Measurements: patent publication US5162361A, “Method of treating diseases associated with elevated levels of interleukin 1” (priority 1990, dated 1992)

Legend:
[1] = system: Pulmonary alveolar macrophages; experiment: Phagocytosis by pulmonary alveolar macrophages (Fluoresbrite beads, flow cytometry); assay type: cell-based, rat
Protocol: One ml aliquots were added to sterile teflon vials (Nalgene) along with pentamidine or dexamethasone (Sigma) as indicated, and incubated for 4 hours at 37° C., 5% CO2. Fluoresbrite carboxylate beads, 1.73 μm (Polysciences) were used to achieve a 100:1 bead to cell ratio and the suspension was incubated for 45 minutes at 37° C., 5% CO2 with gentle agitation. Cell suspensions were then layered over 3 mls. of RPMI/FCS+0.3% BSA, and cells pelleted at 150 xg for 10 minutes. Supernates were discarded and cells resuspended in 1 ml of RPMI/FCS for analysis via flow cytometry. The data presented above is the mean of the percentage of cells taking up one or more beads of triplicate cultures.

IL-1α mRNA = experiment: Northern blot analysis of IL-1α mRNA expression; assay type: cell-based, rat; details: 1 μM dexamethasone, LPS, 3 h, FIG. 2
Protocol: Specific transcription of IL-1α mRNA synthesis was assessed by incubating cells with and without 10 μM pentamidine or 1 μM of the corticosteroid, dexamethasone in the presence or absence of lipopolysaccharide (LPS). At the end of a 3 hour incubation period, the cells were lysed and the total cellular RNA was collected, blotted onto a nitrocellulose filter and probed with ^32 P-labeled IL-1α cDNA. […] In contrast, mRNA for IL-1α was not seen in dexamethasone treated cells.
For determination of IL-1 mRNA levels, cells (4×10^6) were cultured with or without pentamidine (10 μM) or dexamethasone (1 μM) in media with 10% FCS in the presence or absence of LPS (1 μg/ml) for 3 hours. Total cellular RNA was isolated by quanidinium-thiocyanate phenolchloroform extraction (P. Chomczynski et al., Anal. Bioch. 162, 156 (1987)). RNA (10 μg) was electrophoresed in 1.2% agarose gels as previously described (H. Leharch et al., Biochemistry 4743 (1977)). […] Hybridizing species were detected by autoradiography at -70° C., using Kodak XAR film with an intensifying screen. The total RNA levels per lane on the gel was assessed by monitoring 28S and 18S, and expression of α-tubulin mRNA. Accumulation of α-tubulin mRNA was determined by probing the same blot with ^32 P labeled 30 mer oligonucleotide (Du Pont).

IL-1α = experiment: Western blot analysis of cell associated IL-1α; assay type: cell-based, rat; details: 1 μM dexamethasone, LPS, 24 h, FIG. 3
Protocol: To determine the effect of pentamidine on cellular stores of IL-1, intracellular levels of IL-1 were quantitated by incubating cells with and without 10 μM pentamidine and LPS for 24 hours. At the end of this incubation period, the cells were washed, lysed and the total cellular protein was collected for Western blot analysis. […] This is in agreement with the generally accepted existence of a precursor form of IL-1 with a molecular weight in the range of 31-33 kD (J. Giri et al., J. Immunol. 134, 343 (1985)).
Cells (4×10^6 cells) were oultured with pentamidine (10μM) or dexamethasone (1μM) in media with 10% fetal calf serum (FCS) in the presence or absence of LPS (1 μg/ml) for 24 hours. The cells were washed twice in HBSS and then scraped in homogenizing buffer (HBSS containing 0.1 mM EGTA, 1 mM pmsf, 10 μg/ml leupeptin, 1 KIU/ml aprotinin, pH 7.4). The cell suspension was left on ice for 10 minutes at which time the swollen cells were disrupted by sonication. The nuclei and undisrupted cells were pelleted by centrifugation at 800 rpm for 10 minutes and were discarded. The supernatant was centrifugated at 39,000 rpm for 1 hour at 4° C. After centrifugation, the supernatants containing cytosolic components of the cell was carefully removed and was used as the cytosol fraction. […] Molecular weight references were determined by running one lane with pre-stained molecular weight standards.

Ia antigen = Ia antigen expression on alveolar macrophages (flow cytometry); assay type: cell-based, rat
Protocol: ^a Ia antigen expression - Alveolar macrophages were diluted to 1×10^6 cells/ml in RPMI (supplemented as above). Three mls. (3×10^6 cells) were added to sterile teflon vials and treated with pentamidine or dexamethasone for 4 hours at 37° C., 5% CO2, followed by the addition of rat γ IFN at 100 U/ml. Cells were incubated for 18 hours, pelleted, counted and adjusted to 1×10^7 cells/ml in ice cold standard buffer (HBSS, 0.1% Na azide, 1% BSA).
Aliquots of cells (50 μl in quadruplicate) from the various treatment groups were plated to a 96 well round bottom plate (Linbro) and incubated for 45 minutes on ice with 50 μl aliquots of one of the following: monoclonal anti-rat OXS (Sera-lab), monoclonal anti-mouse OX6 (Sera-lab), both at 0.5 μg/5×10^5 cells, or HBSS (control). Cells were washed 3× with standard buffer and incubated for 45 minutes on ice, in the dark, with 50 μl of phycoerythrin-labeled goat anti-mouse IGGI (Fisher Biotech) at 1 μg/5×10^5 cells. Cells were washed 3× with standard buffer, resuspended in 0.4 ml of standard buffer and analyzed via flow cytometry.

tumor necrosis factor = experiment: Tumor necrosis factor secretion by rat macrophages; assay type: cell-based
Protocol: It has also been observed that pentamidine (10^-5 M) blocks the secretion of tumor necrosis factor in rat macrophages (42 units/ml - pentamidine vs. 82 units/ml - control), as well as tumor necrosis factor and IL-6 in human macrophages, where at a concentration of 10^-5 M pentamidine, tumor necrosis factor and IL-6 secretion are suppressed >50%. These additional cytokines are also very influential mediators in inflammatory diseases.
(§1) In vitro studies were performed by taking alveolar macrophages from normal healthy rat lungs and culturing them in the presence of an imidazoline with the inducer lipopolysaccharide for 24 hours. The standard bioassay for IL-1 was performed (see above).

IL-1 [2] = experiment: Western blot analysis of IL-1 on cellular protein from imidazoline treated cells; assay type: cell-based, rat
Description: In addition, Western blot analysis of IL-1 on cellular protein derived from imidazoline treated cells was recently performed. This method definitively identifies the presence or absence of the protein using electrophoretic techniques to separate by molecular weight IL-1 from other proteins followed by staining with specific antibody fog IL-1.

[3] = In vitro toxicity to the cell (LD50); assay type: cell-based; details: rat macrophages
rat macrophages = experiment: In vitro toxicity to the cell (LD50); assay type: cell-based; details: imidazoline, summary statement; compared with pentamidine
IL-1 [4] = experiment: IL-1 release from alveolar macrophages (thymocyte co-stimulation bioassay); assay type: cell-based, rat; details: for Effect on IL-1: LPS, 24 h, FIG. 7
Protocol: Pulmonary alveolar macrophages were collected by lavaging the lungs as previously described (D. B. Warheit et al., Am. Rev. Resp. Dis. 134, 128 (1986)). Once washed and resuspended, the macrophages were allowed to adhere to plastic plates in serum free RPMI 1640 containing 25 mM Hepes, 2 mM L-glutamine, 50 μg/ml gentamicin and streptomycin (media). Following adherence for 1 hour at 37° C. in 5% CO2, the plates were washed once with warm media to remove nonadherent cells, cells were resuspended in media with 10% FCS and treated with or without pentamidine at the indicated concentration and LPS (5 ng/ml) for 24 hours). IL-1 activity was assayed using a thymocyte co-stimulation assay (S. B. Mizel in Methods in Macrophage Biology, Editors, Herscowitz and Holden (1981)). Single cell thymocyte suspension from B6C3F1 mice (female, 5-9 weeks old) at a concentration of 2.0×10^7 /ml in media containing 10% FCS, and 2.5×10^-5 M 2-β mercaptoethanol were added in 50 μl aliquots to each well of flat bottom microtiter plates along with 50 μl of PHA at 2.5 μg/ml. Serial dilution of supernatants or cells were made in media with 10% FCS and added in 100 μl aliquots. IL-1 activity was measured by quantifying the uptake of 3Hthymidine during the last 6 hours of a 72 hour culture at 37° C. and 5% CO2. Cells were harvested onto glass fiber filters and filter associated radioactivity counted in a scintillation counter.
as §1

| Compound | Phagocytic Index ([1]; Dexamethasone 10^-6 M (control 32), p < 0.025 vs. control) | Phagocytic capacity of alveolar macrophages ([1]; result in words) | IL-1α mRNA expression (IL-1α mRNA) | Cell associated IL-1α (Western blot) (IL-1α) | Ia Antigen Expression (MFI) (Ia antigen; Dexamethasone 10^-6 M (control 459), p < 0.025 vs. control) | Mean concentration of Ia molecules on Ia positive cells (Ia antigen; result in words) | Tumor Necrosis Factor (tumor necrosis factor; 10^-5 M Imidazoline, LPS, 24 h (control 83 ± 11)) | Block of tumor necrosis factor in rat macrophages (tumor necrosis factor; imidazoline, summary statement) | Block of IL-1 secretion (Western blot) (IL-1 [2]) | CC50 [3] | Toxicity to the cell (rat macrophages) | Effect on IL-1 (IL-1 [4]; imidazoline 10^-6 M, 10^-5 M and 10^-4 M) | Effect on IL-1 (IL-1 [4]; imidazoline 10^-8 M) | Block of IL-1 in rat macrophages (IL-1 [4]; imidazoline, summary statement) |
| --- | --- | --- | --- | --- | --- | --- | --- | --- | --- | --- | --- | --- | --- | --- |
| C[C@@H]1C[C@H]2[C@@H]3CCC4=CC(=O)C=C[C@]4(C)[C@@]3(F)[C@@H](O)C[C@]2(C)[C@@]1(O)C(=O)CO [Dexamethasone] | 25% | clearly demonstrated its broad immunosuppressive action on these two macrophage functions | not seen | did not express the precursor from of IL-1α | 253 MFI | clearly demonstrated its broad immunosuppressive action on these two macrophage functions |  |  |  |  |  |  |  |  |
| c1cc(C2=NCCN2)ccc1OCCCCCOc1ccc(C2=NCCN2)cc1 [Imidazoline, 1,5-di(4-imidazolinophenoxy)pentane] |  |  |  |  |  |  | 46 ± 19 units/ml | ability to block IL-1 and tumor necrosis factor | blocks the secretion of IL-1 in a similar manner to pentamidine | > 100 µM | less toxic to the cell | blocked IL-1 in a dose related manner | No effect | ability to block IL-1 |
